target: human Edg-2 receptor (Homo sapiens, UniProt Q92633); experiment: Determination of Edg-2 receptor inhibition by FLIPR measurements (LPA-mediated calcium liberation); format: cell-based; settings: CHO cells overexpressing human Edg-2 receptor, LPA 100 nM, fluo-4 calcium fluorescence; read-out: Inhibitory concentrations IC50 for inhibition of the Edg-2 receptor
Summary of the method: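 IC50 was derived from % inhibition of the baseline-corrected peak fluo-4 signal relative to DMSO, measured in triplicate. Compound was added ~5 min before 100 nM LPA (18:1) to human Edg-2–expressing CHO cells in pH 7.5 HBSS buffer with probenecid and HEPES, and fluorescence was monitored ~3 min.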

Chain of human Edg-2 receptor (Q92633 whole entry): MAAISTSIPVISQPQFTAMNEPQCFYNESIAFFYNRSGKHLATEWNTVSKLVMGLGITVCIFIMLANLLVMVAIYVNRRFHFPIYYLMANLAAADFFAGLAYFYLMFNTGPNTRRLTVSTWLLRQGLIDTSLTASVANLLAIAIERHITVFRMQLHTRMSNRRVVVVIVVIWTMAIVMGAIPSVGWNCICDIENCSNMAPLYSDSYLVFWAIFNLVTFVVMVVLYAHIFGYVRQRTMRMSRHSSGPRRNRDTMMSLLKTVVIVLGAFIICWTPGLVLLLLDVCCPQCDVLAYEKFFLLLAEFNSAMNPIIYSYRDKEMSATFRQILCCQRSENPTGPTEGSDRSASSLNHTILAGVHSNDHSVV

Row | IC50 [nM] | Compound
1 | 1000 to 30000 | CC[C@H]1CC[C@](C(=O)O)(N(C)C(=O)c2ccc(OC)c(OCCc3cccc(C)c3)c2)CC1 [Example 441, trans-4-Ethyl-1-{[4-methoxy-3-(2-m-tolyl-ethoxy)-benzoyl]-methyl-amino}-cyclohexanecarboxylic acid]
2 | < 100 | Cc1cccc(CCOc2ccc(C(=O)N[C@]3(C(=O)O)CC[C@@H](C)CC3)cc2C(O)C(F)(F)F)c1 (stereo partly drawn) [Example 442, (R,S)-trans-4-Methyl-1-[4-(2-m-tolyl-ethoxy)-3-(2,2,2-trifluoro-1-hydroxy-ethyl)-benzoylamino]-cyclohexanecarboxylic acid]
3 | 100 to 1000 | COc1cc(F)c(-c2cc(C(=O)N[C@]3(C(=O)O)CC[C@@H](C)CC3)ccc2C(F)(F)F)c(F)c1 [Example 444, 1-[(2′,6′-Difluoro-4′-methoxy-6-trifluoromethyl-biphenyl-3-carbonyl)-amino]-4-methyl-cyclohexanecarboxylic acid]
4 | < 100 | COc1ccc(C(=O)N[C@]2(C(=O)O)CC[C@@H](C)CC2)cc1-c1c(F)cc(OC)c(Cl)c1F [Example 445, 1-[(3′-Chloro-2′,6′-difluoro-6,4′-dimethoxy-biphenyl-3-carbonyl)-amino]-4-methyl-cyclohexanecarboxylic acid]
5 | < 100 | COc1ccc(-c2cc(C(=O)N[C@]3(C(=O)O)CC[C@@H](C)CC3)cc(F)c2OC)cc1Cl [Example 446, Trans-1-[(3′-Chloro-5-fluoro-6,4′-dimethoxy-biphenyl-3-carbonyl)-amino]-4-methyl-cyclohexanecarboxylic acid]
6 | < 100 | CC[C@H]1CC[C@](NC(=O)c2cc(F)c(OC)c(-c3ccc(OC)c(Cl)c3)c2)(C(=O)O)CC1 [Example 447, Cis-1-[(3′-chloro-5-fluoro-6,4′-dimethoxy-biphenyl-3-carbonyl)-amino]-4-ethyl-cyclohexanecarboxylic acid]
7 | < 100 | COc1ccc(-c2cc(C(=O)N[C@]3(C(=O)O)CC[C@H](C(F)(F)F)CC3)cc(F)c2OC)cc1Cl [Example 448, Cis-1-[(3′-Chloro-5-fluoro-6,4′-dimethoxy-biphenyl-3-carbonyl)-amino]-4-trifluoromethyl-cyclohexanecarboxylic acid]
8 | 100 to 1000 | COc1ncc(-c2cc(C(=O)N[C@]3(C(=O)O)CC[C@@H](C)CC3)cc(F)c2OC)cc1Cl [Example 449, 1-[3-(5-Chloro-6-methoxy-pyridin-3-yl)-5-fluoro-4-methoxy-benzoylamino]-4-methyl-cyclohexanecarboxylic acid]
9 | < 100 | CC[C@H]1CC[C@](NC(=O)c2cc(F)c(OC)c(-c3cnc(OC)c(Cl)c3)c2)(C(=O)O)CC1 [Example 450, 1-[3-(5-Chloro-6-methoxy-pyridin-3-yl)-5-fluoro-4-methoxy-benzoylamino]-4-ethyl-cyclohexanecarboxylic acid]
10 | < 100 | COc1ccc(-c2cncc(C(=O)N[C@]3(C(=O)O)CC[C@H](C(F)(F)F)CC3)c2)cc1Cl [Example 451, 1-{[5-(3-Chloro-4-methoxy-phenyl)-pyridine-3-carbonyl]-amino}-4-trifluoromethyl-cyclohexanecarboxylic acid]
11 | 100 to 1000 | C[C@H]1CC[C@@](NC(=O)c2ccc(C(F)(F)F)c(-n3ccc4ccccc43)c2)(C(=O)O)CC1 [Example 452, 1-(3-Indol-1-yl-4-trifluoromethyl-benzoylamino)-4-methyl-cyclohexanecarboxylic acid]
12 | < 100 | CC[C@H]1CC[C@](NC(=O)c2cncc(-c3ccc(OC)c(Cl)c3)c2)(C(=O)O)CC1 [Example 453, 1-{[5-(3-Chloro-4-methoxy-phenyl)-pyridine-3-carbonyl]-amino}-4-ethyl-cyclohexanecarboxylic acid]
13 | < 100 | Cc1cccc(CCOc2cc(C(=O)N[C@]3(C(=O)O)CC[C@H](C(F)(F)F)CC3)cc3c2OC(F)(F)O3)c1 [Example 454, Cis-1-{[2,2-Difluoro-7-(2-m-tolyl-ethoxy)-benzo[1,3]dioxole-5-carbonyl]-amino}-4-trifluoromethyl-cyclohexanecarboxylic acid]
14 | < 100 | Cc1cccc(CCOc2cc(C(=O)NC3(C(=O)O)CCCCCC3)cc3c2OC(F)(F)O3)c1 [Example 455, 1-{[2,2-Difluoro-7-(2-m-tolyl-ethoxy)-benzo[1,3]dioxole-5-carbonyl]-amino}-cycloheptanecarboxylic acid]
15 | < 100 | CC[C@H]1CC[C@](NC(=O)c2cc(OCCc3cccc(C)c3)c3c(c2)OC(F)(F)O3)(C(=O)O)CC1 [Example 456, Cis-1-{[2,2-Difluoro-7-(2-m-tolyl-ethoxy)-benzo[1,3]dioxole-5-carbonyl]-amino}-4-ethyl-cyclohexanecarboxylic acid]
16 | 100 to 1000 | COc1ccc(C(=O)NC2(C(=O)O)CCCCCC2)cc1-c1cccc(C2COC2)c1 [Example 457, 1-[(6-Methoxy-3′-oxetan-3-yl-biphenyl-3-carbonyl)-amino]-cycloheptanecarboxylic acid]
17 | < 100 | CC[C@H]1CC[C@](NC(=O)c2ccc(OC)c(-c3cccc(C4COC4)c3)c2)(C(=O)O)CC1 [Example 458, Cis-4-Ethyl-1-[(6-methoxy-3′-oxetan-3-yl-biphenyl-3-carbonyl)-amino]-cyclohexanecarboxylic acid]
18 | < 100 | COc1ccc(C(=O)N[C@]2(C(=O)O)CC[C@H](C(F)(F)F)CC2)cc1-c1cccc(C2COC2)c1 [Example 459, 1-[(6-Methoxy-3′-oxetan-3-yl-biphenyl-3-carbonyl)-amino]-4-trifluoromethyl-cyclohexanecarboxylic acid]
19 | 100 to 1000 | COc1ccc(C(=O)N[C@]2(C(=O)O)CC[C@H](C(F)(F)F)CC2)cc1OCCc1cccc(C2COC2)c1 [Example 460, 1-{4-Methoxy-3-[2-(3-oxetan-3-yl-phenyl)-ethoxy]-benzoylamino}-4-trifluoromethyl-cyclohexanecarboxylic acid]
20 | 100 to 1000 | CC[C@H]1CC[C@](NC(=O)c2ccc(CCS(C)(=O)=O)c(OCCc3cccc(C)c3)c2)(C(=O)O)CC1 [Example 462, Cis-4-Ethyl-1-[4-(2-methanesulfonyl-ethyl)-3-(2-m-tolyl-ethoxy)-benzoylamino]-cyclohexanecarboxylic acid]
21 | < 100 | CC[C@H]1CC[C@](NC(=O)c2cc3c(c(-c4ccc(OC)c(Cl)c4)c2)OC(F)(F)O3)(C(=O)O)CC1 [Example 463, Cis-1-{[7-(3-Chloro-4-methoxy-phenyl)-2,2-difluoro-benzo[1,3]dioxole-5-carbonyl]-amino}-4-ethyl-cyclohexanecarboxylic acid]

Row | Compound | IC50 [nM]
22 | COc1ccc(-c2cc(C(=O)N[C@]3(C(=O)O)CC[C@@H](C)CC3)ccc2OC2CC(F)(F)C2)cc1Cl [Example 443, Trans-1-{[3′-Chloro-6-(3,3-difluoro-cyclobutoxy)-4′-methoxy-biphenyl-3-carbonyl]-amino}-4-methyl-cyclohexanecarboxylic acid] | 100 to 1000
23 | cis-1-{[5-(3-Chloro-4-methoxy-phenyl)-6-methoxy-pyridine-3-carbonyl]-amino}-4-ethyl-cyclohexanecarboxylic acid [Example 305] | < 100

system: vascular smooth muscle cells and endothelial cells; experiment: not given; settings: cited from earlier work

Row | Compound | LPA-induced oxidative stress
24 | dioctanoylglycerol pyrophosphate [DGPP(8:0)] | attenuated

system: unilateral ureteral obstruction; experiment: not given; settings: model of unilateral ureteral obstruction; cited from earlier work

Row | Compound | renal injury
25 | Cc1noc(-c2ccc(CSCCC(=O)O)cc2)c1NC(=O)OC(C)c1ccccc1Cl (stereo not shown) [Ki16425] | attenuated

system: bone metastasis; experiment: not given; settings: in vivo; cited from earlier work

Row | Compound | progression of bone metastasis
26 | Cc1noc(-c2ccc(CSCCC(=O)O)cc2)c1NC(=O)OC(C)c1ccccc1Cl (stereo not shown) [Ki16425] | reduced

system: platelet activation; experiment: not given; settings: cited from earlier work

Row | Compound | effects of LPA, moxLDL or lipid core extracts from human atherosclerotic plaques on platelet activation
27 | dioctanoylglycerol pyrophosphate [DGPP(8:0)] | abrogated

system: mesangial cells; experiment: not given; settings: cited from earlier work

Row | Compound | LPA-induced proliferative response of mesangial cells
28 | dioctanoylglycerol pyrophosphate [DGPP(8:0)] | inhibited

Source: patent US9018383B2, “Acylamino-substituted cyclic carboxylic acid derivatives and their use as pharmaceuticals” (Sanofi, priority 2009, dated 2015)
